The source of these data is patent US20190364899A1, “MICROBIOCIDAL OXADIAZOLE DERIVATIVES” (SYNGENTA PARTICIPATIONS AG, priority 2015, published 2019).

Like-named read-outs stand apart in the source and are kept apart here.

Experiment [1] concerns Puccinia recondita f, Sp. Tritici. In words: Fungicidal activity against Puccinia recondita f. sp. tritici / wheat / leaf disc preventative (brown rust). It is filed as in vivo. To be noted: foliar, 200 ppm in the applied formulation, wheat leaf segments cv. Kanzler, inoculated 1 day after application, compared to untreated, read-out: disease control. As to the method:
(§1) General examples of leaf disk tests in well plates: Leaf disks or leaf segments of various plant species are cut from plants grown in a greenhouse. The cut leaf disks or segments are placed in multiwell plates (24-well format) onto water agar. The leaf disks are sprayed with a test solution before (preventative) or after (curative) inoculation. Compounds to be tested are prepared as DMSO solutions (max. 10 mg/ml) which are diluted to the appropriate concentration with 0.025% Tween20 just before spraying. The inoculated leaf disks or segments are incubated under defined conditions (temperature, relative humidity, light, etc.) according to the respective test system. A single evaluation of disease level is carried out 3 to 14 days after inoculation, depending on the pathosystem. Percent disease control relative to the untreated check leaf disks or segments is then calculated. General examples of liquid culture tests in well plates: Mycelia fragments or conidia suspensions of a fungus prepared either freshly from liquid cultures of the fungus or from cryogenic storage, are directly mixed into nutrient broth. DMSO solutions of the test compound (max. 10 mg/ml) are diluted with 0.025% Tween20 by a factor of 50 and 10 μl of this solution is pipetted into a microtiter plate (96-well format). The nutrient broth containing the fungal spores/mycelia fragments is then added to give an end concentration of the tested compound. The test plates are incubated in the dark at 24° C. and 96% relative humidity. The inhibition of fungal growth is determined photometrically after 2 to 7 days, depending on the pathosystem, and percent antifungal activity relative to the untreated check is calculated.
Example 1: Fungicidal Activity Against Puccinia recondita f, Sp. Tritici/Wheat/Leaf Disc Preventative (Brown Rust)
Wheat leaf segments cv. Kanzler were placed on agar in multiwell plates (24-well format) and sprayed with the formulated test compound diluted in water. The leaf disks were inoculated with a spore suspension of the fungus 1 day after application. The inoculated leaf segments were incubated at 19° C. and 75% relative humidity (rh) under a light regime of 12 hours light/12 hours darkness in a climate cabinet and the activity of a compound was assessed as percent disease control compared to untreated when an appropriate level of disease damage appears in untreated check leaf segments (7 to 9 days after application).
(§2) The following compounds at 200 ppm in the applied formulation give at least 80% disease control in this test when compared to untreated control leaf disks under the same conditions, which show extensive disease development.

In experiment [2] the test system is Glomerella Lagenarium (Colletotrichum Lagenarium). Put plainly: Fungicidal activity against Glomerella lagenarium (Colletotrichum lagenarium) liquid culture / cucumber / preventative (anthracnose). It is filed as cell-based. To be noted: Colletotrichum orbiculare, read-out: disease control. As to the method:
as §1
Example 4: Fungicidal Activity Against Glomerella Lagenarium (Colletotrichum Lagenarium) Liquid Culture/Cucumber/Preventative (Anthracnose)
Conidia of the fungus from cryogenic storage are directly mixed into nutrient broth (PDB—potato dextrose broth). After placing a (DMSO) solution of test compound into a microtiter plate (96-well format), the nutrient broth containing the fungal spores is added. The test plates are incubated at 24° C. and the inhibition of growth is measured photometrically 3 to 4 days after application.
The following compounds at 20 ppm in the applied formulation give at least 80% disease control in this test when compared to untreated control under the same conditions, which show extensive disease development.

In experiment [3] the test system is Puccinia Recondite f. Sp. Tritici. In words: Fungicidal activity against Puccinia recondita f. sp. tritici / wheat / leaf disc curative (brown rust). Format: in vivo. To be noted: foliar, 24 h, 200 ppm in the applied formulation, wheat leaf segments cv. Kanzler, applied 1 day after inoculation, compared to untreated, read-out: disease control. As to the method:
as §1
Example 2: Fungicidal Activity Against Puccinia Recondite f. Sp. Tritici Wheat/Leaf Disc Curative (Brown Rust)
Wheat leaf segments cv. Kanzler are placed on agar in multiwell plates (24-well format). The leaf segments are then inoculated with a spore suspension of the fungus. Plates were stored in darkness at 19° C. and 75% relative humidity. The formulated test compound diluted in water was applied 1 day after inoculation. The leaf segments were incubated at 19° C. and 75% relative humidity under a light regime of 12 hours light/12 hours darkness in a climate cabinet and the activity of a compound was assessed as percent disease control compared to untreated when an appropriate level of disease damage appears in untreated check leaf segments (6 to 8 days after application).
as §2

Experiment [4] relates to Phakopsora pachyrhizi. In words: Fungicidal activity against Phakopsora pachyrhizi / soybean / leaf disc preventative (Asian soybean rust). To be noted: foliar, 200 ppm in the applied formulation, soybean leaf disks, inoculated one day after application, compared to untreated, read-out: disease control. Format: in vivo. As to the method:
as §1
Example 3: Fungicidal Activity Against Phakopsora pachyrhizi/Soybean/Leaf Disc Preventative (Asian Soybean Rust)
Soybean leaf disks are placed on water agar in multiwell plates (24-well format) and sprayed with the formulated test compound diluted in water. One day after application leaf discs are inoculated by spraying a spore suspension on the lower leaf surface. After an incubation period in a climate cabinet of 24-36 hours in darkness at 20° C. and 75% rh leaf disc are kept at 20° C. with 12 h light/day and 75% rh. The activity of a compound is assessed as percent disease control compared to untreated when an appropriate level of disease damage appears in untreated check leaf disks (12 to 14 days after application).
as §2

Setting [5] is: 20 ppm in the applied formulation, liquid culture in PDB, growth inhibition measured photometrically 3 to 4 days after application, compared to untreated.

As to `O=C(NCc1ccc(-c2noc(C(F)(F)F)n2)cc1)OCc1ccccc1` [Compound 1.4, benzyl N-[[4-[5-(trifluoromethyl)-1,2,4-oxadiazol-3-yl]phenyl]methyl] carbamate], the pest or weed control at 200 ppm in experiment [1] is at least 80%. For the same molecule, in experiment [2] (setting [5]), the inhibition of growth at 20 ppm was at least 80%.

In the case of `O=C(NCc1ccc(-c2noc(C(F)(F)F)n2)cn1)Oc1ccccc1` [Compound 1.5, phenyl N-[[5-[5-(trifluoromethyl)-1,2,4-oxadiazol-3-yl)-2-pyridyl]methyl] carbamate], the inhibition of growth at 20 ppm in experiment [2] was at least 80%.

Regarding `O=C(NCc1ccc(-c2noc(C(F)(F)F)n2)cn1)OCc1ccccc1` [Compound 1.6, benzyl N-[[5-[5-(trifluoromethyl)-l,2,4-oxadiazol-3-yl]-2-pyridyl]methyl] carbamate], the pest or weed control at 200 ppm in experiment [1] and in experiment [3] was at least 80% throughout. For the same molecule, the inhibition of growth at 20 ppm in experiment [2] (setting [5]) was at least 80%.

For `O=C(NCc1ccc(-c2noc(C(F)(F)F)n2)cn1)Nc1ccccc1` [Compound 2.5, 1-phenyl-3-[[5-[5-(trifluoromethyl)-1,2,4-oxadiazol-3-yl]-2-pyridyl]methyl]urea], the pest or weed control at 200 ppm in experiment [1] is at least 80%. Besides, in experiment [2] (setting [5]), the inhibition of growth at 20 ppm is at least 80%.

As for `O=C(NCc1ccc(-c2noc(C(F)(F)F)n2)cc1)NC1CCCCC1` [Compound 2.6, 1-cyclohexyl-3-[[4-[5-(trifluoromethyl)-1,2,4-oxadiazol-3-yl]phenyl]methyl]urea], the pest or weed control at 200 ppm in experiment [4] was at least 80%.

Take `O=C(NCc1ccc(-c2noc(C(F)(F)F)n2)cc1)Nc1ccccc1` [Compound 2.7, 1-phenyl-3-[[4-[5-(trifluoromethyl)-1,2,4-oxadiazol-3-yl]phenyl]methyl]urea]: the pest or weed control at 200 ppm in experiment [4] and in experiment [1] was at least 80% in each case. In experiment [2] (setting [5]), the inhibition of growth at 20 ppm was at least 80%.

As for `O=C(NCc1ccccc1)NCc1ccc(-c2noc(C(F)(F)F)n2)cc1` [Compound 2.8, 1-benzyl-3-[[4-[5-(trifluoromethyl)-1,2,4-oxadiazol-3-yl]phenyl]methyl]urea], in experiment [1], the pest or weed control at 200 ppm was at least 80%. Further, the inhibition of growth at 20 ppm in experiment [2] (setting [5]) was at least 80%.

With `O=C(NCc1ccc(-c2noc(C(F)(F)F)n2)cc1)NC1CCC1` [Compound 2.9, 1-cyclobutyl-3-[[4-[5-(trifluoromethyl)-1,2,4-oxadiazol-3-yl]phenyl]methyl]urea], the pest or weed control at 200 ppm in experiment [1] was at least 80%. Besides, the inhibition of growth at 20 ppm in experiment [2] (setting [5]) was at least 80%.

Consider `O=C(NCc1ccc(-c2noc(C(F)(F)F)n2)cc1)NC1CCCC1` [Compound 2.10, 1-cyclopentyl-3-[[4-[5-(trifluoromethyl)-1,2,4-oxadiazol-3-yl]phenyl]methyl]urea], for which the pest or weed control at 200 ppm in experiment [1] is at least 80%. In experiment [2] (setting [5]), the inhibition of growth at 20 ppm was at least 80%.

Consider `O=C(NCc1ccc(-c2noc(C(F)(F)F)n2)cc1)NCc1ccco1` [Compound 2.11, 1-(2-furylmethyl)-3-[[4-[5-(trifluoromethyl)-l,2,4-oxadiazol-3-yl]phenyl]methyl]urea], for which, in experiment [2] (setting [5]), the inhibition of growth at 20 ppm was at least 80%.

Take `O=C(NCc1ccccc1)NCc1ccc(-c2noc(C(F)(F)F)n2)cn1` [Compound 2.12, 1-benzyl-3-[[5-[5-(trifluoromethyl)-1,2,4-oxadiazol-3-yl]-2-pyridyl]methyl]urea]: the pest or weed control at 200 ppm in experiment [1] is at least 80%. Moreover, the inhibition of growth at 20 ppm in experiment [2] (setting [5]) is at least 80%.

Consider `O=C(NCc1ccc(-c2noc(C(F)(F)F)n2)cn1)Nc1ccc(F)cc1` [Compound 2.13, 1-(4-fluorophenyl)-3-[[5-[5-(trifluoromethyl)-1,2,4-oxadiazol-3-yl]-2-pyridyl]methyl]urea], for which, in experiment [1], the pest or weed control at 200 ppm is at least 80%.

As for `O=C(NCc1ccc(-c2noc(C(F)(F)F)n2)cn1)Nc1ccc(Cl)cc1` [Compound 2.15, 1-(4-chlorophenyl)-3-[[5-[5-(trifluoromethyl)-1,2,4-oxadiazol-3-yl]-2-pyridyl]methyl]urea], in experiment [1], the pest or weed control at 200 ppm is at least 80%. The inhibition of growth at 20 ppm in experiment [2] (setting [5]) was at least 80%.

On to `O=C(NCc1ccc(-c2noc(C(F)(F)F)n2)cn1)NCc1ccco1` [Compound 2.16], for which the pest or weed control at 200 ppm in experiment [1] was at least 80%. Besides, the inhibition of growth at 20 ppm in experiment [2] (setting [5]) was at least 80%.

Take `O=C(NCc1ccc(-c2noc(C(F)(F)F)n2)cn1)Nc1cccc(F)c1` [Compound 2.17, 1-(3-fluorophenyl)-3-[[5-[5-(trifluoromethyl)-1,2,4-oxadiazol-3-yl]-2-pyridyl]methyl]urea]: the pest or weed control at 200 ppm in experiment [4], in experiment [1] and in experiment [3] was at least 80% each time. In experiment [2] (setting [5]), the inhibition of growth at 20 ppm was at least 80%.

For the molecule `O=C(NCc1ccc(-c2noc(C(F)(F)F)n2)cn1)Nc1ccccc1F` [Compound 2.18, 1-(2-fluorophenyl)-3-[[5-[5-(trifluoromethyl)-1,2,4-oxadiazol-3-yl]-2-pyridyl]methyl]urea], the pest or weed control at 200 ppm in experiment [1] is at least 80%. Moreover, the inhibition of growth at 20 ppm in experiment [2] (setting [5]) is at least 80%.

In the case of `O=C(NCc1ccc(-c2noc(C(F)(F)F)n2)cn1)Nc1ccccc1Cl` [Compound 2.19, 1-(2-chlorophenyl)-3-[[5-[5-(trifluoromethyl)-1,2,4-oxadiazol-3-yl]-2-pyridyl]methyl]urea], the pest or weed control at 200 ppm in experiment [4] and in experiment [1] was at least 80% each time. Besides, the inhibition of growth at 20 ppm in experiment [2] (setting [5]) was at least 80%.

`O=C(NCc1ccc(-c2noc(C(F)(F)F)n2)cc1)NC1COC1` [Compound 2.23, 1-(oxetan-3-yl)-3-[[4-[5-(trifluoromethyl)-1,2,4-oxadiazol-3-yl]phenyl]methyl]urea]: the pest or weed control at 200 ppm in experiment [4] and in experiment [1] was at least 80% each time.

Regarding `N#CC1(NC(=O)NCc2ccc(-c3noc(C(F)(F)F)n3)cc2)CC1` [Compound 2.24, 1-(1-cyanocyclopropyl)-3-[[4-[5-(trifluoromethyl)-1,2,4-oxadiazol-3-yl]phenyl]methyl]urea], the pest or weed control at 200 ppm in experiment [4], in experiment [1] and in experiment [3] was at least 80% throughout.

Consider `CC1(NC(=O)NCc2ccc(-c3noc(C(F)(F)F)n3)cc2)CC1` [Compound 2.25, 1-(1-methylcyclopropyl)-3-[[4-[5-(trifluoromethyl)-1,2,4-oxadiazol-3-yl]phenyl]methyl]urea], for which the pest or weed control at 200 ppm in experiment [4] is at least 80%.

Take `CCN(CC1CC1)C(=O)NCc1ccc(-c2noc(C(F)(F)F)n2)cc1` [Compound 2.29, 1-(cyclopropylmethyl)-l-ethyl-3-[[4-[5-(trifluoromethyl)-1,2,4-oxadiazol-3-yl]phenyl]methyl]urea]: the pest or weed control at 200 ppm in experiment [4] and in experiment [1] was at least 80% each time. Also, the inhibition of growth at 20 ppm in experiment [2] (setting [5]) is at least 80%.
